Key:
[1] = test system: tumor cells; settings: preclinical models of melanoma; cited from earlier work
[2] = test system: 1205Lu cells; assay: LC3 immunoblotting of lysates from cells treated with rapamycin or hydroxychloroquine; assay type: cell-based, human; settings: 1205Lu cells compared to WM793 cells
Method: Melanoma cell lines […] and 1205Lu (as well as other cell lines identified in the appropriate figures) were maintained in RPMI 1640 (Invitrogen) supplemented with 10% fetal bovine serum (Sigma), 50 μg/mL gentamicin, and 25 mmol/L HEPES in the presence of 5% CO2 at 37° C. The 3D spheroid cultures were prepared as previously described^1 and cell death was evaluated using the Live/Dead Assay (Invitrogen). Electron microscopy was performed as previously described^1. Immunoblotting was performed on whole cell lysates as previously described. A commercially available polyclonal antibody against actin (I-19) was used (Santa Cruz). A polyclonal antibody against LC3 that was produced by QCB Biologicals was used. Band densities from Western Blots were quantified using Adobe Photoshop CS4 Extended.
The genetically paired melanoma cell lines, WM793 and 1205Lu, were used for initial secretome comparisons due to the inherent genetic heterogeneity across unrelated melanoma cell lines. The 1205Lu cell line is a subclone derived from the lung metastasis of WM793 in athymic mice, thus minimizing protein expression changes caused by genetic differences^14. To determine autophagic capacity in these paired cell lines, electron microscopy of WM793 and 1205Lu grown in complete medium was used to quantify AVs (FIG. 1A). […]

For CCN(CCO)CCCC(C)Nc1ccnc2cc(Cl)ccc12 (centres unmarked) [hydroxychloroquine], the “effect on cytotoxic effects of alkylating agents” value [1] is listed as “augment the cytotoxic effects of alkylating agents” and the LC3II/LC3I ratio [2] is listed as “increases”.
